According to patent US10287267B2, “Isoquinolin-3-yl carboxamides and preparation and use thereof” (Samumed, LLC, priority 2016, dated 2019):
Like-named read-outs stand apart in the source and are kept apart here.

Assays:
[1] = tested on: Wnt pathway (Sp5-Luc reporter, TCF/LEF binding sites) in SW480 colon carcinoma cells; assay: Screening assay for Wnt activity: Sp5-Luc reporter gene assay; assay type: cell-based, human; conditions: Homo sapiens; for EC50: Sp5-Luc reporter, SW480 cells, 36 to 48 hours; for inhibition at 10 µM: SW480, read-out: percent inhibition at 10 μM;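 on all read-outs here: firefly luciferase luminescence read in stably transduced SW480 cells carrying the Sp5 promoter reporter with eight TCF/LEF sites, compounds given in 0.1% DMSO final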
Experimental: The screening assay for Wnt activity is described as follows.
Following incubation, 15 μl of BriteLite Plus luminescence reagent (Perkin Elmer) was added to each well of the 384-well assay plates. The plates were placed on an orbital shaker for 2 min and then luminescence was quantified using the Envision (Perkin Elmer) plate reader.

[2] = molecular target: recombinant DYRK1A kinase (Homo sapiens (Human), UniProt Q13627); assay: DYRK1A kinase assay (Ser/Thr 18 peptide Z-lyte FRET); assay type: biochemical; conditions: 30 μM ATP, 1 h room temperature;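 further: Read-out is the coumarin to fluorescein emission ratio, referenced to unphosphorylated (0%) and phosphorylated (100%) Ser/Thr 18 peptide controls, values from dose-response curves by non-linear regression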
recombinant GSK3β kinase = recombinant GSK3β kinase (Homo sapiens (Human), UniProt P49841); assay: GSK3β kinase assay (Ser/Thr 09 peptide Z-lyte FRET); assay type: biochemical; conditions: 46 μM ATP, 1 h room temperature;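 further: kinase activity read as coumarin to fluorescein emission ratio, 11-point threefold dilutions from 10 µM to 0.0003 µM in duplicate, unphosphorylated and phosphorylated peptide as 0% and 100% controls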
[3] = tested on: Tau phosphorylation at Ser396 (pSer396); assay: Tau phosphorylation assay (pSer396 ELISA / western blot) in SH-SY5Y cells; assay type: cell-based, human; conditions: Homo sapiens, read-out: pSer396 Tau EC50;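 further: EC50 for reduction of Tau pSer396 in lysed cells, measured by colorimetric ELISA or chemiluminescent western blot, both using the same pSer396 antibody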
[4] = tested on: SW480 colon carcinoma cells; assay: Cell viability assay (CellTiter-Glo); assay type: cell-based, human; conditions: Homo sapiens; for EC50: 96 h, SW480 cells, CellTiter-Glo, four days incubation; for inhibition at 10 µM: SW480, read-out: percent inhibition at 10 μM
[5] = tested on: α-smooth muscle actin (αSMA) positive LL29 cells; assay: Inhibition of fibrotic process: αSMA in TGF-β1 treated primary human fibroblasts from IPF patients; assay type: cell-based; conditions: Homo sapiens, Fibroblast; for EC50: 96 h, Table 8, LL29 fibroblasts from IPF patients, TGF-β1 20 ng/mL, 4 days, dose-response 10 μM to 0.94 nM; for inhibition at 10 µM: read-out: percent value in parentheses beside EC50 >10 μM;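 on all read-outs here: controls were TGF-β1 stimulated wells with DMSO vehicle (positive) and cells given DMSO alone (negative), cultured in F12 medium with 1% fetal bovine serum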
IL-6 = IL-6 inhibition in LPS-stimulated human peripheral blood mononuclear cells (HTRF); assay type: cell-based; conditions: Homo sapiens, PBMC; for inhibition at 10 µM: read-out: percent value in parentheses beside EC50 >10 μM; for EC50: Table 9, huPBMCs, LPS 50 ng/mL, 22 hours, dose-response starting from 10 μM;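 on all read-outs here: IL-6 detected by HTRF with an XL665- and Cryptate-labelled anti-IL-6 antibody pair, samples run in duplicate, EC50 obtained from a four-parameter Levenberg-Marquardt curve fit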
Experimental: After 22 hour incubation, a mixture of anti-IL6 XL665 and anti-IL-6 Cryptate diluted in reconstitution buffer (Catalog #62IL6PEC, Cisbio Inc., Bedford, Mass.) was added to each well. […] All samples were processed in duplicate. […] EC50 was determined using software generated by Dotmatics Limited (Windhill Bishops Stortford Herts, UK) using the Levenberg-Marquardt 4 parameter fitting procedure with finite different gradients.

[6] = SH-SY5Y cells, overnight (16-18 h) exposure

Sequence of recombinant GSK3β kinase (P49841 whole entry): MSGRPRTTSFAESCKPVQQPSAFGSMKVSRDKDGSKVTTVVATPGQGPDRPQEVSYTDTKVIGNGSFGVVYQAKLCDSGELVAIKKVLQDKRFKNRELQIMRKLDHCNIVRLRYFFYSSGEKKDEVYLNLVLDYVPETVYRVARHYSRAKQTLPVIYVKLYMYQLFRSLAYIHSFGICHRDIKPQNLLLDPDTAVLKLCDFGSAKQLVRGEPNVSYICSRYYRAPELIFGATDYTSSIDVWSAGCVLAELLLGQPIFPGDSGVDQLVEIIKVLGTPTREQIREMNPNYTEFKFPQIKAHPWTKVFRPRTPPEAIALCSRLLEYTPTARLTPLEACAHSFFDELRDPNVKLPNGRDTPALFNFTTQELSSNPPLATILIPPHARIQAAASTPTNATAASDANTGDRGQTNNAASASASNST

SMILES	EC50 [1]	EC50 [2]	EC50 (recombinant GSK3β kinase)	EC50 ([3]; SH-SY5Y)	EC50 [4]	EC50 [5]	inhibition at 10 µM (IL-6)	EC50 (IL-6)	inhibition at 10 µM [1]	EC50 [3, 6]	inhibition at 10 µM [5]	inhibition at 10 µM [4]
Cn1cc(-c2ccc3cnc(NC(=O)CN4C5CCC4CC5)cc3c2)nn1 [Compound 513, 2-(7-Azabicyclo[2.2.1]heptan-7-yl)-N-(6-(1-methyl-1H-1,2,3-triazol-4-yl)isoquinolin-3-yl)acetamide]	6430 nM	10.4 nM	43 nM	864 nM	9060 nM	1350 nM	14.5%	> 10000 nM				
Cn1cc(-c2ccc3cnc(NC(=O)C(C)(C)F)cc3c2)nn1 [Compound 312, 2-Fluoro-2-methyl-N-(6-(1-methyl-1H-1,2,3-triazol-4-yl)isoquinolin-3-yl) propanamide]	> 10000 nM	12.7 nM	31 nM		> 10000 nM	> 10000 nM	3.9%	> 10000 nM	23.8%	762 nM	36.5%	
Cc1cc(-c2ccc3cnc(NC(=O)C4CCN(CCC(F)(F)F)CC4)cc3c2)on1 [Compound 307, N-(6-(3-Methylisoxazol-5-yl)isoquinolin-3-yl)-1-(3,3,3-trifluoropropyl) piperidine-4-carboxamide]	> 10000 nM	6220 nM	5260 nM		> 10000 nM	7150 nM	4.3%	> 10000 nM	25.9%	2080 nM		
CC(C)CN1CCC(C(=O)Nc2cc3cc(-c4cn[nH]c4)ccc3cn2)CC1 [Compound 643, N-(6-(1H-Pyrazol-4-yl)isoquinolin-3-yl)-1-isobutylpiperidine-4-carboxamide]	129 nM	1.8 nM	49 nM		115 nM	138 nM		129 nM		49 nM		
Cn1ncc(-c2ccc3cnc(NC(=O)C4CCC(F)(F)CC4)cc3c2)c1CN1CCCCC1 [Compound 300, 4,4-Difluoro-N-(6-(1-methyl-5-(piperidin-1-ylmethyl)-1H-pyrazol-4-yl)isoquinolin-3-yl)cyclohexane-1-carboxamide]	1120 nM	8.2 nM	31 nM		1300 nM	511 nM		2740 nM		222 nM		
Cn1cc(-c2ccc3cnc(NC(=O)C4CCN(Cc5ncco5)CC4)cc3c2)cn1 [Compound 360, N-(6-(1-Methyl-1H-pyrazol-4-yl)isoquinolin-3-yl)-1-(oxazol-2-ylmethyl) piperidine-4-carboxamide]	690 nM	1.9 nM	47 nM		570 nM	94 nM		1170 nM		659 nM		
Cn1cc(-c2ccc3cnc(NC(=O)[C@@H]4CCCNC4)cc3c2)nn1 [Compound 481, (R)—N-(6-(1-Methyl-1H-1,2,3-triazol-4-yl)isoquinolin-3-yl)piperidine-3-carboxamide]	1540 nM	4.3 nM	4 nM		1370 nM	1020 nM		1140 nM		662 nM		
Cn1cc(-c2cc3cc(NC(=O)C4CCNCC4)ncc3cc2F)cn1 [Compound 369, N-(7-Fluoro-6-(1-methyl-1H-pyrazol-4-yl)isoquinolin-3-yl)piperidine-4-carboxamide]	743 nM	2.8 nM	101 nM		864 nM	295 nM		1130 nM		970 nM		
Cn1cc(-c2ccc3cnc(NC(=O)C4CCN(CC(=O)O)CC4)cc3c2)cn1 [Compound 1011, 2-(4-((6-(1-Methyl-1H-pyrazol-4-yl)isoquinolin-3-yl)carbamoyl)piperidin-1-yl)acetic acid]	> 10000 nM	2.6 nM	30 nM		> 10000 nM	> 10000 nM	15.3%	> 10000 nM	25%	> 10000 nM	15.9%	25%
CC(C)CN1CCC(F)(C(=O)Nc2cc3cc(-c4cnc5n4CCNC5)ccc3cn2)CC1 [Compound 1021, 4-Fluoro-1-isobutyl-N-(6-(5,6,7,8-tetrahydroimidazo[1,2-a]pyrazin-3-yl)isoquinolin-3-yl)piperidine-4-carboxamide]	> 10000 nM	42.2 nM	1580 nM		> 10000 nM	4490 nM	5.1%	> 10000 nM	16.5%	5700 nM		11.6%
CN1CCN(CC(=O)Nc2cc3cc(-c4cnn5c4CN(CCF)CC5)ccc3cn2)CC1 [Compound 1024, N-(6-(5-(2-Fluoroethyl)-4,5,6,7-tetrahydropyrazolo[1,5-a]pyrazin-3-yl)isoquinolin-3-yl)-2-(4-methylpiperazin-1-yl)acetamide]	3510 nM	17 nM	150 nM		6770 nM	549 nM	33.1%	> 10000 nM		1200 nM		
CN1CCC(C(=O)Nc2cc3cc(-c4ccn(C)n4)ccc3cn2)CC1 [Compound 264, 1-Methyl-N-(6-(1-methyl-1H-pyrazol-3-yl)isoquinolin-3-yl)piperidine-4-carboxamide]	> 10000 nM	348 nM	> 10000 nM		8750 nM	> 10000 nM	4%	> 10000 nM		> 10000 nM	11.7%	
[2H]C([2H])([2H])n1cc(-c2ccc3cnc(NC(=O)C4CCN(CCC(F)(F)F)CC4)cc3c2)cn1 [Compound 304, N-(6-(1-(Methyl-d3)-1H-pyrazol-4-yl)isoquinolin-3-yl)-1-(3,3,3-trifluoropropyl)piperidine-4-carboxamide]	2320 nM	2.7 nM	29 nM		1340 nM	150 nM		1140 nM		210 nM		
Cn1cc(-c2ccc3cnc(NC(=O)[C@H]4CC[C@H](N)CC4)cc3c2)cn1 [Compound 365, trans-4-Amino-N-(6-(1-methyl-1H-pyrazol-4-yl)isoquinolin-3-yl) cyclohexane-1-carboxamide]	381 nM	2.7 nM	52 nM		522 nM	4800 nM		526 nM		1200 nM		
O=C(Nc1cc2cc(-c3cnc4n3CCNC4)ccc2cn1)C1CCN(CC2(C(F)(F)F)CC2)CC1 [Compound 990, N-(6-(5,6,7,8-Tetrahydroimidazo[1,2-a]pyrazin-3-yl)isoquinolin-3-yl)-1-((1-(trifluoromethyl)cyclopropyl)methyl)piperidine-4-carboxamide]	2860 nM	21.3 nM	100 nM		3550 nM	782 nM	0%	> 10000 nM		1800 nM		
Cn1cc(-c2ccc3cnc(NC(=O)CN4CC[C@H](F)C4)cc3c2)cn1 [Compound 69, (S)-2-(3-Fluoropyrrolidin-1-yl)-N-(6-(1-methyl-1H-pyrazol-4-yl)isoquinolin-3-yl)acetamide]	3700 nM	6.2 nM	13 nM		3930 nM	394 nM		2160 nM		383 nM		
Cn1cc(-c2ccc3cnc(NC(=O)CN4CCC(C(F)(F)F)CC4)cc3c2)cn1 [Compound 294, N-(6-(1-Methyl-1H-pyrazol-4-yl)isoquinolin-3-yl)-2-(4-(trifluoromethyl)piperidin-1-yl)acetamide]	5190 nM	12.4 nM	41 nM		4150 nM	> 10000 nM		6230 nM		905 nM	41.3%	
CN1CCC[C@@H]1C(=O)Nc1cc2cc(-c3cnn(C)c3)ccc2cn1 [Compound 363, (R)-1-Methyl-N-(6-(1-methyl-1H-pyrazol-4-yl)isoquinolin-3-yl)pyrrolidine-2-carboxamide]	2360 nM	50.3 nM	35 nM		3060 nM	387 nM		1220 nM		406 nM		
C[C@@H]1CCCN1CC(=O)Nc1cc2cc(-c3cnc4n3CCNC4)ccc2cn1 [Compound 1030, (R)-2-(2-Methylpyrrolidin-1-yl)-N-(6-(5,6,7,8-tetrahydroimidazo[1,2-a]pyrazin-3-yl)isoquinolin-3-yl)acetamide]	> 10000 nM	194 nM	390 nM		> 10000 nM	2810 nM	7.7%	> 10000 nM	44.8%	1200 nM		19.3%
Cn1cncc1-c1ccc2cnc(NC(=O)C3CCN(S(C)(=O)=O)CC3)cc2c1 [Compound 561, N-(6-(1-Methyl-1H-imidazol-5-yl)isoquinolin-3-yl)-1-(methylsulfonyl) piperidine-4-carboxamide]	1460 nM	1.5 nM	12 nM		924 nM	600 nM		634 nM		395 nM		
